{
  "source": "paper PMC11277489",
  "about": "“Novel Piperazine Derivatives of Vindoline as Anticancer Agents” (International Journal of Molecular Sciences, 2024)",
  "format_in_all_cases": "cell-based",
  "key": {"K-562": {"test_system": "K-562", "assay": "NCI60 five-dose screen, Leukemia", "conditions": "Homo sapiens, K562; K-562, Leukemia; five-dose screen; read-out: GI50"}, "MOLT-4": {"test_system": "MOLT-4", "assay": "NCI60 five-dose screen, Leukemia", "conditions": "Homo sapiens; MOLT-4, Leukemia; five-dose screen; read-out: GI50"}, "RPMI-8226": {"test_system": "RPMI-8226", "assay": "NCI60 five-dose screen, Leukemia", "conditions": "Homo sapiens; RPMI-8226, Leukemia; five-dose screen; read-out: GI50"}, "SR": {"test_system": "SR", "assay": "NCI60 five-dose screen, Leukemia", "conditions": "Homo sapiens, Leukemia, five-dose screen, read-out: GI50"}, "A549/ATCC": {"test_system": "A549/ATCC", "assay": "NCI60 five-dose screen, Non-small Cell Lung Cancer", "conditions": "Homo sapiens; A549/ATCC, Non-small Cell Lung Cancer; five-dose screen; read-out: GI50"}, "EKVX": {"test_system": "EKVX", "assay": "NCI60 five-dose screen, Non-small Cell Lung Cancer", "conditions": "Homo sapiens, Non-small Cell Lung Cancer, five-dose screen, read-out: GI50"}, "HOP-62": {"test_system": "HOP-62", "assay": "NCI60 five-dose screen, Non-small Cell Lung Cancer", "conditions": "Homo sapiens; HOP-62, Non-small Cell Lung Cancer; five-dose screen; read-out: GI50"}, "NCI-H322M": {"test_system": "NCI-H322M", "assay": "NCI60 five-dose screen, Non-small Cell Lung Cancer", "conditions": "Homo sapiens, Non-small Cell Lung Cancer, five-dose screen, read-out: GI50"}, "HCT-116": {"test_system": "HCT-116", "assay": "NCI60 five-dose screen, Colon Cancer", "conditions": "Homo sapiens; HCT-116, Colon Cancer; five-dose screen; read-out: GI50"}, "HCT-15": {"test_system": "HCT-15", "assay": "NCI60 five-dose screen, Colon Cancer", "conditions": "Homo sapiens; HCT-15, Colon Cancer; five-dose screen; read-out: GI50"}, "HT29": {"test_system": "HT29", "assay": "NCI60 five-dose screen, Colon Cancer", "conditions": "Homo sapiens, HT-29; HT29, Colon Cancer; five-dose screen; read-out: GI50"}, "SF-268": {"test_system": "SF-268", "assay": "NCI60 five-dose screen, CNS Cancer", "conditions": "Homo sapiens; SF-268, CNS Cancer; five-dose screen; read-out: GI50"}, "SF-295": {"test_system": "SF-295", "assay": "NCI60 five-dose screen, CNS Cancer", "conditions": "Homo sapiens; SF-295, CNS Cancer; five-dose screen; read-out: GI50"}, "SF-539": {"test_system": "SF-539", "assay": "NCI60 five-dose screen, CNS Cancer", "conditions": "Homo sapiens; SF-539, CNS Cancer; five-dose screen; read-out: GI50"}, "SNB-19": {"test_system": "SNB-19", "assay": "NCI60 five-dose screen, CNS Cancer", "conditions": "Homo sapiens; SNB-19, CNS Cancer; five-dose screen; read-out: GI50"}, "U251": {"test_system": "U251", "assay": "NCI60 five-dose screen, CNS Cancer", "conditions": "Homo sapiens, U-251; U251, CNS Cancer; five-dose screen; read-out: GI50"}, "LOX IMVI": {"test_system": "LOX IMVI", "assay": "NCI60 five-dose screen, Melanoma", "conditions": "Homo sapiens, Melanoma, five-dose screen, read-out: GI50"}, "M14": {"test_system": "M14", "assay": "NCI60 five-dose screen, Melanoma", "conditions": "Homo sapiens; M14, Melanoma; five-dose screen; read-out: GI50"}, "MDA-MB-435": {"test_system": "MDA-MB-435", "assay": "NCI60 five-dose screen, Melanoma", "conditions": "Homo sapiens; MDA-MB-435, Melanoma; five-dose screen; read-out: GI50"}, "SK-MEL-2": {"test_system": "SK-MEL-2", "assay": "NCI60 five-dose screen, Melanoma", "conditions": "Homo sapiens; SK-MEL-2, Melanoma; five-dose screen; read-out: GI50"}, "SK-MEL-28": {"test_system": "SK-MEL-28", "assay": "NCI60 five-dose screen, Melanoma", "conditions": "Homo sapiens; SK-MEL-28, Melanoma; five-dose screen; read-out: GI50"}, "SK-MEL-5": {"test_system": "SK-MEL-5", "assay": "NCI60 five-dose screen, Melanoma", "conditions": "Homo sapiens; SK-MEL-5, Melanoma; five-dose screen; read-out: GI50"}, "UACC-257": {"test_system": "UACC-257", "assay": "NCI60 five-dose screen, Melanoma", "conditions": "Homo sapiens; UACC-257, Melanoma; five-dose screen; read-out: GI50"}, "UACC-62": {"test_system": "UACC-62", "assay": "NCI60 five-dose screen, Melanoma", "conditions": "Homo sapiens; UACC-62, Melanoma; five-dose screen; read-out: GI50"}, "OVCAR-4": {"test_system": "OVCAR-4", "assay": "NCI60 five-dose screen, Ovarian Cancer", "conditions": "Homo sapiens; OVCAR-4, Ovarian Cancer; five-dose screen; read-out: GI50"}, "OVCAR-8": {"test_system": "OVCAR-8", "assay": "NCI60 five-dose screen, Ovarian Cancer", "conditions": "Homo sapiens; OVCAR-8, Ovarian Cancer; five-dose screen; read-out: GI50"}, "RXF 393": {"test_system": "RXF 393", "assay": "NCI60 five-dose screen, Renal Cancer", "conditions": "Homo sapiens, RXF 393, Renal Cancer"}, "UO-31": {"test_system": "UO-31", "assay": "NCI60 five-dose screen, Renal Cancer", "conditions": "Homo sapiens; UO-31, Renal Cancer; five-dose screen; read-out: GI50"}, "PC-3": {"test_system": "PC-3", "assay": "NCI60 five-dose screen, Prostate Cancer", "conditions": "Homo sapiens; PC-3, Prostate Cancer; five-dose screen; read-out: GI50"}, "MDA-MB231ATCC": {"test_system": "MDA-MB231ATCC", "assay": "NCI60 five-dose screen, Breast Cancer", "conditions": "Homo sapiens, MDA-MB-231; MDA-MB231ATCC, Breast Cancer; five-dose screen; read-out: GI50"}, "HS 578T": {"test_system": "HS 578T", "assay": "NCI60 five-dose screen, Breast Cancer", "conditions": "Homo sapiens; HS 578T, Breast Cancer; five-dose screen; read-out: GI50"}, "BT-549": {"test_system": "BT-549", "assay": "NCI60 five-dose screen, Breast Cancer", "conditions": "Homo sapiens; BT-549, Breast Cancer; five-dose screen; read-out: GI50"}, "MDA-MB-468": {"test_system": "MDA-MB-468", "assay": "NCI60 five-dose screen, Breast Cancer", "conditions": "Homo sapiens; MDA-MB-468, Breast Cancer; five-dose screen; read-out: GI50"}, "[1]": {"test_system": "60 human tumor cell lines (NCI60)", "assay": "NCI60 five-dose screen, whole panel and sub-panel means", "conditions": "Homo sapiens, read-out: GI50 Mean"}},
  "note": "Like-named read-outs stand apart in the source and are kept apart here.",
  "data": [
    {"compound": "CC[C@]12C=CCN3CC[C@@]4(c5ccc(OC)cc5N(C)[C@H]4[C@@](O)(C(=O)OC)[C@@H]1OC(=O)CCC(=O)N1CCN(Cc4ccc(C(F)(F)F)cc4)CC1)[C@@H]32", "note": "[Compound 29]", "values": [
      {"measurement": "GI50", "setting": "K-562", "value": 3.8, "unit": "µM"},
      {"measurement": "GI50", "setting": "MOLT-4", "value": 5.25, "unit": "µM"},
      {"measurement": "GI50", "setting": "RPMI-8226", "value": 6.92, "unit": "µM"},
      {"measurement": "GI50", "setting": "SR", "value": 13.8, "unit": "µM"},
      {"measurement": "GI50", "setting": "A549/ATCC", "value": 8.32, "unit": "µM"},
      {"measurement": "GI50", "setting": "EKVX", "value": 7.59, "unit": "µM"},
      {"measurement": "GI50", "setting": "HOP-62", "value": 14.1, "unit": "µM"},
      {"measurement": "GI50", "setting": "NCI-H322M", "value": 14.5, "unit": "µM"},
      {"measurement": "GI50", "setting": "HCT-116", "value": 7.76, "unit": "µM"},
      {"measurement": "GI50", "setting": "HCT-15", "value": 10.2, "unit": "µM"},
      {"measurement": "GI50", "setting": "HT29", "value": 6.76, "unit": "µM"},
      {"measurement": "GI50", "setting": "SF-268", "value": 5.75, "unit": "µM"},
      {"measurement": "GI50", "setting": "SF-295", "value": 9.33, "unit": "µM"},
      {"measurement": "GI50", "setting": "SF-539", "value": 12.9, "unit": "µM"},
      {"measurement": "GI50", "setting": "SNB-19", "value": 11.8, "unit": "µM"},
      {"measurement": "GI50", "setting": "U251", "value": 11.2, "unit": "µM"},
      {"measurement": "GI50", "setting": "LOX IMVI", "value": 13.8, "unit": "µM"},
      {"measurement": "GI50", "setting": "M14", "value": 8.13, "unit": "µM"},
      {"measurement": "GI50", "setting": "MDA-MB-435", "value": 10.5, "unit": "µM"},
      {"measurement": "GI50", "setting": "SK-MEL-2", "value": 2.82, "unit": "µM"},
      {"measurement": "GI50", "setting": "SK-MEL-28", "value": 11.8, "unit": "µM"},
      {"measurement": "GI50", "setting": "SK-MEL-5", "value": 3.89, "unit": "µM"},
      {"measurement": "GI50", "setting": "UACC-257", "value": 11.5, "unit": "µM"},
      {"measurement": "GI50", "setting": "UACC-62", "value": 11, "unit": "µM"},
      {"measurement": "GI50", "setting": "OVCAR-4", "value": 5.62, "unit": "µM"},
      {"measurement": "GI50", "setting": "OVCAR-8", "value": 12, "unit": "µM"},
      {"measurement": "GI50", "setting": "RXF 393", "value": 4.47, "unit": "µM"},
      {"measurement": "GI50", "setting": "UO-31", "value": 6.92, "unit": "µM"},
      {"measurement": "GI50", "setting": "PC-3", "value": 3.39, "unit": "µM"},
      {"measurement": "GI50", "setting": "MDA-MB231ATCC", "value": 14.1, "unit": "µM"},
      {"measurement": "GI50", "setting": "HS 578T", "value": 10.2, "unit": "µM"},
      {"measurement": "GI50", "setting": "BT-549", "value": 15.1, "unit": "µM"},
      {"measurement": "GI50", "setting": "MDA-MB-468", "value": 1.95, "unit": "µM"},
      {"measurement": "GI50", "setting": "[1]; 60 cell, mean over all 60 cell lines", "value": 9.76, "unit": "µM"},
      {"measurement": "GI50", "setting": "[1]; mean over Breast Cancer panel", "value": 8.72, "unit": "µM"},
      {"measurement": "GI50", "setting": "[1]; mean over CNS Cancer panel", "value": 11.1, "unit": "µM"},
      {"measurement": "GI50", "setting": "[1]; mean over Colon Cancer panel", "value": 9.71, "unit": "µM"},
      {"measurement": "GI50", "setting": "[1]; mean over Leukemia panel", "value": 9.07, "unit": "µM"},
      {"measurement": "GI50", "setting": "[1]; mean over Melanoma panel", "value": 9.42, "unit": "µM"},
      {"measurement": "GI50", "setting": "[1]; mean over Non-small Cell Lung Cancer panel", "value": 10.4, "unit": "µM"},
      {"measurement": "GI50", "setting": "[1]; mean over Ovarian Cancer panel", "value": 10.6, "unit": "µM"},
      {"measurement": "GI50", "setting": "[1]; mean over Prostate Cancer panel", "value": 7.3, "unit": "µM"},
      {"measurement": "GI50", "setting": "[1]; mean over Renal Cancer panel", "value": 9.9, "unit": "µM"}
    ]}
  ]
}
